Reference: BindingDB's records for doi:10.1021/ml2001455 (2011)

Assays:
[1] = molecular target: T1, Mitogen-activated protein kinase 14 (Homo sapiens, UniProt Q16539); assay: Inhibition of p38alpha in human PBMC assessed as inhibition of LPS-induced TNFalpha production after 16 to 18 hrs by ELISA
[2] = molecular target: T1, Mitogen-activated protein kinase 14; assay: Inhibition of p38alpha kinase using KRELVEPLTPSGEAPNQALLR as substrate for 20 mins by lactate dehydrogenase-coupled spectrophotometric assay
[3] = molecular target: T1, Mitogen-activated protein kinase 14; assay: Inhibition of p38alpha in human PBMC assessed as inhibition of LPS-induced IL1beta production after 16 to 18 hrs by ELISA

T1 sequence (Q16539 whole entry): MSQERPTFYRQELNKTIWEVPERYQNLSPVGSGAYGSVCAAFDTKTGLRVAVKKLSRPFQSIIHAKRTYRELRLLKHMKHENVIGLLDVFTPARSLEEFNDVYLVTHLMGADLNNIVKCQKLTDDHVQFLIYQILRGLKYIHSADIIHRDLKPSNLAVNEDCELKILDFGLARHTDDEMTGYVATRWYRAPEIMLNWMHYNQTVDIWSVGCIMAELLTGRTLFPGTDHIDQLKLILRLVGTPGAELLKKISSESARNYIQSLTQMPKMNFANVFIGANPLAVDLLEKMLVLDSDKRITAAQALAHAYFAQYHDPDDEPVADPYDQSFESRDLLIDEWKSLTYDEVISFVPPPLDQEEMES

## COc1ccccc1-c1c(=O)ncn2nc(Sc3ccccc3)ccc12
[1]
  IC50: > 20 µM

## COc1ccc(-c2c(=O)ncn3nc(Sc4ccccc4)ccc23)cc1
[2]
  IC50: > 20 µM
[1]
  IC50: > 20 µM

## O=c1ncn2nc(Sc3ccccc3)ccc2c1-c1ccc(Cl)c(Cl)c1
[2]
  IC50: > 20 µM
[3]
  IC50: > 20 µM
[1]
  IC50: > 20 µM
